Series [1] is described as follows: Intrinsic clearance in rat liver microsomes. In kind it is ADME, Microsome.
Series [2] addresses T1, Glucocorticoid receptor (Homo sapiens, UniProt P04150).
T1 sequence (P04150 whole entry): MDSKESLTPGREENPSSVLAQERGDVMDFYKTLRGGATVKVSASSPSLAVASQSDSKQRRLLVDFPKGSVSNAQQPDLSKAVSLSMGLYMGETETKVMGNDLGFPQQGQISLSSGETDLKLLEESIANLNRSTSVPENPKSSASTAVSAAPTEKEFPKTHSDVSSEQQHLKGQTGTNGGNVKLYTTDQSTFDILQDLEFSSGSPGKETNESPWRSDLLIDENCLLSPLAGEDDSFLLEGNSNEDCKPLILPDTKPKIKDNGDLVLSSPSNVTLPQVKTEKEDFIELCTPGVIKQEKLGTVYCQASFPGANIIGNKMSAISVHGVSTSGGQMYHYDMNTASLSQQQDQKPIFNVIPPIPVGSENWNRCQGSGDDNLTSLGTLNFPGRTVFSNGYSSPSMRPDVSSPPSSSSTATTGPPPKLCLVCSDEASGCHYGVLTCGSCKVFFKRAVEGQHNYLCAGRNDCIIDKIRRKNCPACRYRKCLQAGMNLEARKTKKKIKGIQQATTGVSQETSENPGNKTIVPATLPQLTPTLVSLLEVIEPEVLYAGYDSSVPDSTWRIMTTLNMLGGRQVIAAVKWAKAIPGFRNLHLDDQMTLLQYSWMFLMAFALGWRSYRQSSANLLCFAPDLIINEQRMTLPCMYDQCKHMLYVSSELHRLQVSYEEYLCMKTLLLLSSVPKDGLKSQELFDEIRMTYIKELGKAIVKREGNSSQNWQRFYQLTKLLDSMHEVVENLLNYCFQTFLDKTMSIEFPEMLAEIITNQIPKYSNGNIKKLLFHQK
The series can be described thus: Antagonist activity at glucocorticoid receptor LBD expressed in human HUH7 cells coexpressing GAL4 by luciferase reporter gene assay. In kind it is functional, cell-based, Huh-7.

Series [3] addresses T2, Androgen receptor (Homo sapiens, UniProt P10275).
T2 sequence (P10275 whole entry): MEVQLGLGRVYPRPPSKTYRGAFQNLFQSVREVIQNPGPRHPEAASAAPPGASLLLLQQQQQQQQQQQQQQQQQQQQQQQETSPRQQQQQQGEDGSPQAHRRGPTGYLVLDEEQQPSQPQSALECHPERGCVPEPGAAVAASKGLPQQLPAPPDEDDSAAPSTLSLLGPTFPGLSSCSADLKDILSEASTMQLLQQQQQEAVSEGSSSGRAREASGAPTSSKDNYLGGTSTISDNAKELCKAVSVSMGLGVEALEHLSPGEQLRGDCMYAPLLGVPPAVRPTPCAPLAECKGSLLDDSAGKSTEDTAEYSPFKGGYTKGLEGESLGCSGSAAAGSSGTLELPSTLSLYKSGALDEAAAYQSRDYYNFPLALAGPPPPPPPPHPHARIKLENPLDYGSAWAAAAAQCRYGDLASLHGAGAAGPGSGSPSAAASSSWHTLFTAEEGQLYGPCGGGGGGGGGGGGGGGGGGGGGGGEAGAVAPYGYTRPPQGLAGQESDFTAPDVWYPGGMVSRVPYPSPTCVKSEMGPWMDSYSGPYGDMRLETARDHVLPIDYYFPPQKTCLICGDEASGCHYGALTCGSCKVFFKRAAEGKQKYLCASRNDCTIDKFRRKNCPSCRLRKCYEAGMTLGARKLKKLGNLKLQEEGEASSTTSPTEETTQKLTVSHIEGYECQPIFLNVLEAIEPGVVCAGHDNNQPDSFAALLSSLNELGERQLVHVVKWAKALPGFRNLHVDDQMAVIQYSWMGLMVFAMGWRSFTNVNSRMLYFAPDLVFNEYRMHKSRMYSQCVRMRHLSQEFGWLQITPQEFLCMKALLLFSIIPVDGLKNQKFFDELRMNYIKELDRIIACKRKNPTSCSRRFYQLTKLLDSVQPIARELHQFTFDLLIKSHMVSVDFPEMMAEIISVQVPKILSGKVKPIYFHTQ
Nature of the series: Antagonist activity at androgen receptor LBD expressed in human HUH7 cells coexpressing GAL4 by luciferase reporter gene assay. In kind it is functional, cell-based, Huh-7.

Series [4] addresses Cytochrome P450 2C9 (Homo sapiens, UniProt P11712). Nature of the series: Inhibition of CYP2C9. The class given is ADME.
The target of series [5] is Cytochrome P450 3A4 (Homo sapiens, UniProt P08684). Nature of the series: Inhibition of CYP3A4. In kind it is ADME.
The nature of series [6]: Solubility of the compound. The class given is physicochemical.
For series [7], the target named is T3, Mineralocorticoid receptor (Homo sapiens, UniProt P08235).
T3 sequence (P08235 whole entry): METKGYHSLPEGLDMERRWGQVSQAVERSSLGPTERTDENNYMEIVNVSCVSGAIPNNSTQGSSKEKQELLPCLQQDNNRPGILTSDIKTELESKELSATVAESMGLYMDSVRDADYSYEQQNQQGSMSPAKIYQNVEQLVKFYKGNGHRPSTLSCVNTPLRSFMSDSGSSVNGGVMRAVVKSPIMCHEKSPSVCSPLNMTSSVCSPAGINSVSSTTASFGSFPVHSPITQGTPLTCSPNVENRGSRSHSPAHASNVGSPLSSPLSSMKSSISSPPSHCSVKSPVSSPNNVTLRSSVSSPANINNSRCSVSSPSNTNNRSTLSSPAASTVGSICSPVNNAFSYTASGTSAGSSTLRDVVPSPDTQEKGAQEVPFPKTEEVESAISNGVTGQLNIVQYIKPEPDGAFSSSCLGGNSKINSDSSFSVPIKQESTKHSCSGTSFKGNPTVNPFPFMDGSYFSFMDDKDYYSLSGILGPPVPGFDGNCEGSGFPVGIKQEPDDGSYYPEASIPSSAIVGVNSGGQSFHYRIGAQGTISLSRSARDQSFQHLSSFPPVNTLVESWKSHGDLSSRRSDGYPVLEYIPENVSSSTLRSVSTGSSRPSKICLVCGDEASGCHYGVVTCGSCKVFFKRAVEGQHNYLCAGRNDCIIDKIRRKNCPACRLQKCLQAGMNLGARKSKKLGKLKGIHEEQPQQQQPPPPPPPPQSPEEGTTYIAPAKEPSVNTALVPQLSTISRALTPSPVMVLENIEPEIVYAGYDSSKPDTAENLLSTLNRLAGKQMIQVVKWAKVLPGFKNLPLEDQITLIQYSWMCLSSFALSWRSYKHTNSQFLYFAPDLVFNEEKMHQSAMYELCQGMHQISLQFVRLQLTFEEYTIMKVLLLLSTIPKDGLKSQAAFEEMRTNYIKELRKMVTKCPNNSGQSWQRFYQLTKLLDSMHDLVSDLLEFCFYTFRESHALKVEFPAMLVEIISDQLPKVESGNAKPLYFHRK
Description: Antagonist activity at mineralocorticoid receptor LBD expressed in human HUH7 cells coexpressing GAL4 by luciferase reporter gene assay

The target of series [8] is Cytochrome P450 2D6 (Homo sapiens, UniProt P10635). Nature of the series: Inhibition of CYP2D6. In kind it is ADME.
In series [9] the target is T4, Progesterone receptor (Homo sapiens, UniProt P06401).
T4 sequence (P06401 whole entry): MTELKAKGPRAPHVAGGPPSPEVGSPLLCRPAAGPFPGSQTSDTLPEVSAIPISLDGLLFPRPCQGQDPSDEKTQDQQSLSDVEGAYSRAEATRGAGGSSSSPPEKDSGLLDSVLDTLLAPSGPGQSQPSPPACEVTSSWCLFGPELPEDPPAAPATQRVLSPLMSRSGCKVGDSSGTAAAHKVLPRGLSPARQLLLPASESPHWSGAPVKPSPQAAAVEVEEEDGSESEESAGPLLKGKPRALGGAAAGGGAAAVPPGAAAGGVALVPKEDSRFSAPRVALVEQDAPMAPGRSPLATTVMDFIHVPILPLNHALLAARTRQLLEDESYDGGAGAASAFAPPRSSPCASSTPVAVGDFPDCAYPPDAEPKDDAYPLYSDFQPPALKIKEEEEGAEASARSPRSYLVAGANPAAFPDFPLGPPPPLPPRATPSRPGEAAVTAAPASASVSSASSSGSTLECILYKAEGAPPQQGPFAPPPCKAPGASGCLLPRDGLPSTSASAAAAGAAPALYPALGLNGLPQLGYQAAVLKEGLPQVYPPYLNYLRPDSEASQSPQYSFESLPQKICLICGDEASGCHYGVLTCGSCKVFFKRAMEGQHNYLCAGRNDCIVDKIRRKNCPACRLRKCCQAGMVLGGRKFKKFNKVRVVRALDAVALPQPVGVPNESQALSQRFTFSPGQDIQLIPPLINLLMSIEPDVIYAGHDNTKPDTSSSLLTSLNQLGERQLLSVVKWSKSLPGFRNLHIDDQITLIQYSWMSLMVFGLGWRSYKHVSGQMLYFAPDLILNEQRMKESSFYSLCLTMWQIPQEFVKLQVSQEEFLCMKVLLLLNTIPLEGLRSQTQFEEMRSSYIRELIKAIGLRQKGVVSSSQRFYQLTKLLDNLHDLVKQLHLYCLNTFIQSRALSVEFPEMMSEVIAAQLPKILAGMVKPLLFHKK
The series can be described thus: Antagonist activity at progesterone receptor LBD expressed in human HUH7 cells coexpressing GAL4 by luciferase reporter gene assay. The class given is functional, cell-based, Huh-7.

The subject of series [10] is Liver microsomes. Nature of the series: Metabolic stability in human liver microsomes assessed as compound remaining. The class given is ADME, Microsome.
Series [11] has as its system Liver microsomes. The series can be described thus: Metabolic stability in rat liver microsomes assessed as compound remaining. The class given is ADME, Microsome.
Series [12] relates to Rattus norvegicus. Nature of the series: Protection of renal injury in Dahl salt-sensitive rat model assessed as reduction of urinal albumin excretion at 60 mg/kg, po bid for 21 days. The class given is functional, organism-based. Set-up: dose 60 mg/kg.
Series [13] concerns Rattus norvegicus. The series can be described thus: Antihypertensive activity in Dahl salt-sensitive rat model assessed as decrease of systolic blood pressure at 60 mg/kg, po bid for 21 days. The conditions noted are these: Artery. Set-up: dose 60 mg/kg. In kind it is functional, organism-based.
Series [14] deals with Rattus norvegicus. The series can be described thus: Antihypertensive activity in Dahl salt-sensitive rat model assessed as decrease of systolic blood pressure at 100 mg/kg administered with chow diet for 21 days. More on the design: dose 100 mg/kg. In kind it is functional, organism-based. Conditions: Artery.

Converted amounts (≈) assume the structure as drawn. The source made the active and inactive calls. The rule behind the calls is not given here.

Cytochrome P450 2C9, sequence (P11712 whole entry): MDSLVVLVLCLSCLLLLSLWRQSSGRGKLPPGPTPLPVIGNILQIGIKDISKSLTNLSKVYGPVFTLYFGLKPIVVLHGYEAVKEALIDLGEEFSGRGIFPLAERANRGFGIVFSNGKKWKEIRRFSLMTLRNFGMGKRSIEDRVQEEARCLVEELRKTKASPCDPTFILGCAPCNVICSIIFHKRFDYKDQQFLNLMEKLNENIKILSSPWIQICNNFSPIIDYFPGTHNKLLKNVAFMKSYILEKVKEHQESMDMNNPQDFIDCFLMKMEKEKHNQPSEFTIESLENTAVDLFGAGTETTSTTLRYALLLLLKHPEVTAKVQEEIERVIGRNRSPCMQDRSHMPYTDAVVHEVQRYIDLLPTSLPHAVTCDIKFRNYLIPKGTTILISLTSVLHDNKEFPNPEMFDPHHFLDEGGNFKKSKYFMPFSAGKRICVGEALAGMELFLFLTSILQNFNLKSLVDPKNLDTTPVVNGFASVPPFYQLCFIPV
Cytochrome P450 2D6, sequence (P10635 whole entry): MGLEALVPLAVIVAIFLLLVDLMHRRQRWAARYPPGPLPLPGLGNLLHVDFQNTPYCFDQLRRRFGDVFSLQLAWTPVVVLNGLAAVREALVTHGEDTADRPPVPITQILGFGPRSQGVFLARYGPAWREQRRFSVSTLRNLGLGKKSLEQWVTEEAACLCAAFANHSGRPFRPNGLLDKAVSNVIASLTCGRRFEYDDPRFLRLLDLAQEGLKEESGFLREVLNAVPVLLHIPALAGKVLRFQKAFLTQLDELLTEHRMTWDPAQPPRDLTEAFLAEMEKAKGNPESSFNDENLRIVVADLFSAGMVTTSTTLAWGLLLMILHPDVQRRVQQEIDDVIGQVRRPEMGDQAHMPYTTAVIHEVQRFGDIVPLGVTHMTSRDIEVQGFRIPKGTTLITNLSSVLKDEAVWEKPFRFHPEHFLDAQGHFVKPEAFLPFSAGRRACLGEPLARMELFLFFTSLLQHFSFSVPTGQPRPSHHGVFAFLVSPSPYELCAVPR
Cytochrome P450 3A4, sequence (P08684 whole entry): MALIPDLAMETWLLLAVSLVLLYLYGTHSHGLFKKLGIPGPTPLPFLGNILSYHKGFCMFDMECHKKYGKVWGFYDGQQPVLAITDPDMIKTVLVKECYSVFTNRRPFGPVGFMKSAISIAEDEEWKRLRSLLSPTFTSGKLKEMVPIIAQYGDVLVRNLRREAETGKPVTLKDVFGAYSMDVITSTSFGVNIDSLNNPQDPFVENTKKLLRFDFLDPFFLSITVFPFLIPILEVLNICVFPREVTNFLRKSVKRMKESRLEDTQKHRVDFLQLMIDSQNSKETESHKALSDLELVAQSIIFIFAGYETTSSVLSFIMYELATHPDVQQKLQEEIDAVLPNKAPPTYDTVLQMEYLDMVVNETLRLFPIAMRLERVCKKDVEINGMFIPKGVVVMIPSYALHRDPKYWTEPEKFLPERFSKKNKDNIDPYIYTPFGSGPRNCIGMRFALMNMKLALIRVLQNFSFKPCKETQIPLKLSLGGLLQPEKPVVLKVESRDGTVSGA

With `COC(=O)C1=C(Cn2cnnn2)NC(C)=C(C#N)[C@H]1c1ccc(F)cc1Cl`, in [1], the intrinsic metabolic clearance (CLint scaled) was 8.71 mL/min/kg. Moreover, the 50% inhibitory concentration (IC50) was 1000 nM in series [2]; 300 nM in [3]; over 10000 nM in series [4]; over 10000 nM in series [5]; 52 nM in series [7]; over 10000 nM in [8]. Further, inhibition in series [9] was half-maximal at 7200 nM (IC50). In addition, in [6], the solubility worked out at 32 µM (≈ 12.4 µg/mL).

As for `CCCC1=C(C(=O)OC)C(c2ccc(F)cc2Cl)C(C#N)=C(C)N1` (centres undefined), the Stability in series [10] and in [11] was 4% each time. For the same molecule, the IC50 is 700 nM in [2], 100 nM in [3], 16 nM in series [7] and over 10000 nM in series [9]. Further, the concentration in solution in [6] (solubility) came to 5 µM (≈ 1.74 µg/mL).

On to `COC(=O)[C@@H]1CC2=CC(=O)CC[C@]2(C)[C@@]23O[C@@H]2C[C@@]2(C)[C@@H](CC[C@@]24CCC(=O)O4)[C@H]13`, for which the outcome in series [12], in series [13] and in series [14] was Active.

For `CCCCC1=C(C(=O)OC)C(c2ccccc2Cl)C(C#N)=C(C)N1` (centres undefined), the Stability in series [10] is 11%; in [11], 3%. Also, the half-maximal inhibitory concentration (IC50) in series [2] is 1600 nM; in [3], 900 nM; in series [7] it was 58 nM; in series [9], 300 nM. Further, the solubility in series [6] is under 5 µM.

As for `COC(=O)C1=C(C(F)(F)F)NC(C)=C(C#N)C1c1ccc(F)cc1Cl` (centres undefined), the Stability in series [10] is listed as 0%; in [11], 6%. Moreover, the IC50 in series [2] is 3700 nM; in series [3], 800 nM; in [7] it was 52 nM; in [9], 7800 nM. In addition, the entries for the “inhibition (INH)” value in series [4], in [5] and in [8] were 72%, 30% and 6.8%, respectively.

Regarding `COC(=O)C1=C(Cn2cccn2)NC(C)=C(C#N)C1c1ccc(F)cc1Cl` (centres undefined), the Stability in series [10] is given as 2%; in series [11], 31%. Besides, the IC50 in [2] is 3300 nM; in [4] it was 600 nM; in series [5] it was 1100 nM; in series [7] it was 54 nM; in series [8] it was over 10000 nM; in series [9] it was 5500 nM. This molecule came in with a solubility in [6] of over 5 µM.
